Legend:
[1] = target: T1, Recombinant human Plk-1 (6×His) (Homo sapiens, UniProt P53350); test: PLK enzyme assay; format: biochemical; details: biotinylated casein and 33P-γ-ATP substrate, 90 minutes at room temperature, SPA beads; read-out: PLK-1 IC50 [nM] Inhibition
T1 construct: 6xHis; made in house; host or cells: baculovirus-infected insect cells (Hi5)
Method: Recombinant human Plk-1 (6×His) was purified from baculovirus-infected insect cells (Hi5).
10 ng of (produced in a recombinant manner and purified) PLK enzyme is incubated for 90 minutes at room temperature with biotinylated casein and 33P-γ-ATP as a substrate in a volume of 15 μl in 384-well Greiner small-volume microtiter plates (final concentrations in the buffer: 660 ng/ml of PLK; 0.7 μmol of casein, 0.5 μmol of ATP incl. 400 nCi/ml of 33P-γ-ATP; 10 mmol of MgCl2, 1 mmol of MnCI2; 0.01% NP40; 1 mmol of DTT, protease inhibitors; 0.1 mmol of Na2VO3 in 50 mmol of HEPES, pH 7.5). To complete the reaction, 5 μl of stop solution (500 μmol of ATP; 500 mmol of EDTA; 1% Triton X100; 100 mg/ml of streptavidin-coated SPA beads in PBS) is added. After the microtiter plate is sealed by film, the beads are sedimented by centrifuging (10 minutes, 1500 rpm). The incorporation of 33P-γ-ATP in casein is intended as a measurement of enzyme activity by β-counting.
Test substances are used in various concentrations (0 μmol, as well as in the range of 0.01-30 μmol). The final concentration of the solvent dimethyl sulfoxide is 1.5% in all batches.

[2] = system: human MaTu breast tumour cells; test: Proliferation assay (crystal violet); format: cell-based; details: 96 h, 4 days incubation, read-out: Inhibition of the Tumour Cell Proliferation (MaTu) IC50
Method: Cultivated human MaTu breast tumour cells were flattened out at a density of 5000 cells/measuring point in a 96-well multititer plate in 200 μl of the corresponding growth medium. After 24 hours, the cells of one plate (zero-point plate) were colored with crystal violet (see below), while the medium of the other plates was replaced by fresh culture medium (200 μl), to which the test substances were added at various concentrations (0 μm, as well as in the range of 0.01-30 μm; the final concentration of the solvent dimethyl sulfoxide was 0.5%). The cells were incubated for 4 days in the presence of test substances. The cell proliferation was determined by coloring the cells with crystal violet: the cells were fixed by adding 20 μl/measuring point of an 11% glutaric aldehyde solution for 15 minutes at room temperature. After three washing cycles of the fixed cells with water, the plates were dried at room temperature. The cells were colored by adding 100 μl/measuring point of a 0.1% crystal violet solution (pH was set at 3 by adding acetic acid). […] The extinction was determined by photometry at a wavelength of 595 nm. The change of cell growth, in percent, was calculated by standardization of the measured values to the extinction values of the zero-point plate (=0%) and the extinction of the untreated (0 μm) cells (=100%).

T1 sequence (P53350 whole entry): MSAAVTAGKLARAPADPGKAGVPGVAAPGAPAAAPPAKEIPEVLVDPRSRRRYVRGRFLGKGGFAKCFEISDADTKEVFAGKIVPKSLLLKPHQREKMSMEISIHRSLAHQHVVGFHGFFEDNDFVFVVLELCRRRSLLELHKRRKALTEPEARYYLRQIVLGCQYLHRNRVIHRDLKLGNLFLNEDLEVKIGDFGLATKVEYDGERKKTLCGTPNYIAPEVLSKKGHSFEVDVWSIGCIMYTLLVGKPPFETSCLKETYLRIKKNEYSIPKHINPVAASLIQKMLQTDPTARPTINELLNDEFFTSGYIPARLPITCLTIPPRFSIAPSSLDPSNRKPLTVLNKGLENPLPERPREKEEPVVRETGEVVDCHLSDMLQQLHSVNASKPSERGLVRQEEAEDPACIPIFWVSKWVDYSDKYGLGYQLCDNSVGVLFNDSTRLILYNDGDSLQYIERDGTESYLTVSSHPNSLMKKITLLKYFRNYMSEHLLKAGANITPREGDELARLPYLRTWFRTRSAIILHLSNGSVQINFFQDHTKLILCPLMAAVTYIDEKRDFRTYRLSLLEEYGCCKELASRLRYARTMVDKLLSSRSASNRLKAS

Structure (SMILES) | IC50 [1] [nM] | IC50 [2] [nM]
CCNC(=O)/C(C#N)=c1\sc(=Cc2ccc(O)cc2)c(=O)n1CC [Example 3] | 230 | –
C#CCNC(=O)/C(C#N)=c1\sc(=Cc2ccc(N3CCCC3)cc2)c(=O)n1CC [Example 10] | 23 | –
C#CCNC(=O)/C(C#N)=c1\sc(=Cc2ccc(O)cc2)c(=O)n1CC [Example 8] | 39 | 3200

Reference: patent US20070010565A1, “New thiazolidinones without basic nitrogen, their production and use as pharmaceutical agents” (priority 2005, published 2007)
